Columns and labels:
Type in all cases: in vivo
houseflies [1] = assay: Knockdown activity against houseflies; conditions: female houseflies 4 days old, sprayed in Kearns and March chamber, 0.25 g/liter, 5% acetone and 95% Isopar L
Protocol: Female houseflies 4 days old were sprayed in a Kearns and March chamber at 2 ml per second with a solution of 5% of acetone and 95% of Isopar L with 50 insects being used for each dose at a concentration of 0.25 g/liter and readings were taken every 30 seconds for 10 minutes and after 15 minutes to determine the KT50 by the usual method.

houseflies [2] = assay: Lethal activity against houseflies (topical application); conditions: female houseflies 4 to 5 days old, topical 1 μl acetone solution on dorsal thorax, dead counted 24 hours later
Protocol: 50 female houseflies 4 to 5 days old per treatment received a topical application of 1 μl of an acetone solution of the test compound on the dorsal thorax with an Arnold micromanipulator and the number of dead flies was determined 24 hours later. The DL50 or dose in nanograms per fly necessary to kill 50% of the insects were determined and the results are reported in Table II.

beetles = assay: Lethal activity against beetles (contact with film on glass); conditions: contact with film on glass from acetone solutions
Description: The tests were effected by contact with a film on glass deposited by pipette of acetone solutions of different concentrations on the bottom of a glass Petrie dish with sides previously coated with talc to avoid loss of insects.

[3] = system: larvae of Spodoptera littoralis; assay: Lethal effect against Spodoptera larvae (topical application); conditions: Spodoptera littoralis larvae 4th stage, topical 1 μl acetone solution, dead counted 48 hours later
Protocol: 1 μl of acetone solution of the test compound was applied with an Arnold micromanipulator to the dorsal thorax of 15 larvae of Spodoptera littoralis in the 4th stage of development which are about 10 days old at 24° C. and 65% relative humidity. After treatment, the larvae were placed on an artificial nutritive media and the number of dead was determined 48 hours later.

[4] = system: larvae of Acanthocelides obtectus; assay: Lethal activity against Acanthocelides obtectus; conditions: Test D repeated

| SMILES | KT50 (houseflies [1]) [min] | DL50 namograms per insects (houseflies [2]) [namograms per insects] | CL50 in mg/m^2 (beetles) [mg/m^2] | DL50 ng per insect [3] [ng per insect] | DL50 in ng per insect [4] [ng per insect] |
| --- | --- | --- | --- | --- | --- |
| CC1(C)[C@H](C(=O)O[C@H](C#N)c2ccc(F)c(Oc3ccccc3)c2)[C@H]1C(Br)C(Cl)(Cl)Br (mixture of isomers) [Example 2, (S) cyano-(4-fluoro-3-phenoxy-phenyl)-methyl (1R,trans) 2,2-dimethyl-3-[1 (R,S), 2-dibromo-2,2-dichloroethyl]-cyclopropane-1-carboxylate] | 2.8 | 1.14 | 0.084 | 6.2 | 10.9 |
| CC1(C)C(C(=O)O[C@H](C#N)c2ccc(F)c(Oc3ccccc3)c2)C1(C)C [Example 1, (S) cyano-(4-fluoro-3-phenoxy-phenyl)-methyl 2,2,3,3-tetramethyl-cyclopropane-1-carboxylate] | 2.0 | 5.3 | 0.22 | 8.4 | 8.12 |
| CC1(C)[C@H](C(=O)O[C@H](C#N)c2ccc(F)c(Oc3ccccc3)c2)[C@@H]1C(Br)C(Cl)(Cl)Br (stereo partly drawn) [Example 3, (S) cyano-(4-fluoro-3-phenoxy-phenyl)-methyl (1R,cis) 2,2-dimethyl-3-[1(R,S) 2-dibromo-2,2-dichlor-ethyl]-cyclopropane-1-carboxylate] | 2.9 | 1.02 | 0.021 | 1.4 | 7.7 |
| CC1(C)[C@H](C(=O)O[C@H](C#N)c2ccc(F)c(Oc3ccccc3)c2)[C@H]1C(Br)C(Br)(Br)Br (stereo partly drawn) [Example 4, (S) cyano-(4-fluoro-3-phenoxy-phenyl)-methyl (1R,trans) 2,2-dimethyl-3-[1(R,S)2,2,2-tetrabromoethyl]-cyclopropane-1-carboxylate] | 2.0 | 1.04 | 0.074 | 6.5 | 6.7 |
| CC1(C)[C@H](C(=O)O[C@H](C#N)c2ccc(F)c(Oc3ccccc3)c2)[C@@H]1C(Br)C(Br)(Br)Br (stereo partly drawn) [Example 5, (S) cyano-(4-fluoro-3-phenoxy-phenyl)-methyl (1R,cis) 2,2-dimethyl-3-[1,(R,S) 2,2,2-tetrabromoethyl]-cyclopropane-1-carboxylate] | 4.8 | 0.58 | 0.037 | 1.6 | 16.1 |
| CC1(C)[C@H](C=C(F)F)[C@H]1C(=O)O[C@H](C#N)c1ccc(F)c(Oc2ccccc2)c1 [Example 6] | 1.6 | 8.9 | 0.126 | 3.4 | 7.1 |
| CC1(C)[C@H](C(=O)O[C@H](C#N)c2ccc(F)c(Oc3ccccc3)c2)[C@@H]1C=C(F)F [Example 7, (S) cyano-(4-fluoro-3-phenoxy-phenyl)-methyl (1R,cis) 2,2-dimethyl-3-[2,2-difluoroethenyl]-cyclopropane-1-carboxylate] | 1.7 | 1.9 | 0.029 | 2.2 | 7.4 |
| CC1(C)[C@H](C=C2CCCC2)[C@H]1C(=O)O[C@H](C#N)c1ccc(F)c(Oc2ccccc2)c1 [Example 8, (S) cyano-(4-fluoro-3-phenoxy-phenyl)-methyl (1R,trans) 2,2-dimethyl-3-cyclopentylidenemethyl-cyclopropane-1-carboxylate] | 6.1 | 0.98 | 0.054 | 14.9 | 20.1 |
| CC1(C)[C@H](C(=O)O[C@H](C#N)c2ccc(F)c(Oc3ccccc3)c2)[C@@H]1C=C1CCCC1 [Example 9, (S) cyano-(4-fluoro-3-phenoxy-phenyl)-methyl (1R,cis) 2,2-dimethyl-3-cyclopentylidenemethyl-cyclopropane-1-carboxylate] | 4.4 | 0.87 | 0.083 | 5.1 | 8.6 |
| CC1(C)[C@H](C=C2CCSC2=O)[C@H]1C(=O)O[C@H](C#N)c1ccc(F)c(Oc2ccccc2)c1 [Example 10, (S) cyano-(4-fluoro-3-phenoxy-phenyl)-methyl (1R,trans) 2,2-dimethyl-3-[(dihydro-2-oxo-3-(2H)-thienylidene)-methyl]-cyclopropane-1-carboxylate] | 3.5 | – | – | – | – |
| CC1(C)[C@H](C(=O)O[C@H](C#N)c2ccc(F)c(Oc3ccccc3)c2)[C@@H]1C=C1CCSC1=O [Example 11, (S) cyano-(4-fluoro-3-phenoxy-phenyl)-methyl (1R,cis) 2,2-dimethyl-3-[(dihydro-2-oxo-3-(2H)-thienylidene)-methyl]-cyclopropane-1-carboxylate] | 3.5 | 21.3 | – | 8.2 | 50.6 |
| CC(C)[C@H](C(=O)O[C@H](C#N)c1ccc(F)c(Oc2ccccc2)c1)c1ccc(OC(F)F)cc1 [Example 12, (S) cyano (4-fluoro-3-phenoxy-phenyl)-methyl 2 (S)-[p-difluoromethoxy-phenyl]-3-methyl-butyrate] | 3.6 | 4.9 | 0.23 | 44.3 | 22.2 |
| CC1(C)[C@H](C=C2CCC2)[C@H]1C(=O)O[C@H](C#N)c1ccc(F)c(Oc2ccccc2)c1 [Example 13, (S) cyano-(4-fluoro-3-phenoxy-phenyl)-methyl (1R,trans) 2,2-dimethyl-3-cyclobutylidene-methyl-cyclopropane-1-carboxylate] | 2.74 | 0.97 | 0.029 | 5.8 | 17.9 |
| CC1(C)[C@H](C(=O)O[C@H](C#N)c2ccc(F)c(Oc3ccccc3)c2)[C@@H]1C=C1CC1 [Example 14, (S) cyano-(4-fluoro-3-phenoxy-phenyl)-methyl (1R,cis) 2,2-dimethyl-3-cyclopropylidene-methyl-cyclopropane-1-carboxylate] | 3.13 | 1.44 | 0.049 | 4.25 | 22.7 |
| CC1(C)[C@H](C=C2CC2)[C@H]1C(=O)O[C@H](C#N)c1ccc(F)c(Oc2ccccc2)c1 [Example 15, (S) cyano-(3-phenoxy-4-fluoro-phenyl)-methyl (1R,trans) 2,2-dimethyl-3-cyclopropylidene-methyl-cyclopropane-1-carboxylate] | 2.85 | 2.04 | 0.137 | 4.6 | 31.2 |
| CC1(C)[C@H](C(=O)O[C@H](C#N)c2ccc(F)c(Oc3ccccc3)c2)[C@@H]1C=C1CCC1 [Example 16, (S) cyano-(4-fluoro-3-phenoxy-phenyl)-methyl (1R,cis) 2,2-dimethyl-3-cyclobutylidenemethyl-cyclopropane-1-carboxylate] | 2.89 | 0.639 | 0.018 | 4.5 | 12.3 |

— US4463014A, “Cyclopropane carboxylates” (Uclaf; Roussel, priority 1981, dated 1984)
